From patent US20120064519A1, “SYSTEM AND METHOD FOR DUAL-DETECTION OF A CELLULAR RESPONSE” (priority 2007, published 2012)

Tested on: A431 cells
Experiment: EW-excited fluorescence of IRDye labeled EGF interacting with A431 cells on RWG biosensor microplate
Format: cell-based, human
Experimental: 384-well Epic® cell assay microplates were obtained from Corning Inc. (Corning, N.Y.). The surface of each Epic® cell assay microplate is tissue culture compatible and enables the attachment and normal growth of adherent cells, including native cells, recombinant or engineered cell lines, primary cells, and like cells.
Cell culturing—Human epidermoid carcinoma A431 cells (American Type Cell Culture) were grown in Dulbecco's modified Eagle's medium (DMEM) supplemented with 10% fetal bovine serum (FBS), 4.5 g/liter glucose, 2 mM glutamine, and antibiotics. About 1.5 to about 2×10^4 cells at passage 3 to 15 suspended in 200 microliters of the DMEM medium containing 10% FBS were placed in each well of a 384-well microplate. After cell seeding, the cells were cultured at 37° C. under air/5% CO2 until about 95% confluency was reached (about 1-2 days). The confluent cells were washed with serum-free medium and incubated in the same medium at 37° C. under air/5% CO2 for 20 hours. On the day of assay, the cells were washed with HBSS (Hanks Balanced Salt Solution with 20 mM HEPES) buffer. The resulting A431 cells were assayed without or with pretreatment with modulators including, for example, AG1478, dynamin inhibitory peptide (DIPC), or unlabeled EGF. The EGFR was activated with the IRDye® labeled EGF and the resultant DMR signals were then recorded.
Optical system—An optical detection system is constructed and used for dual-detection of both EW-based labeled-free signal and EW-excited fluorescence of IR dye molecules as shown in FIG. 2C.
FIGS. 12A to 12D show measured fluorescence intensities of A431 cells cultured on the biosensor microplate surfaces in response to stimulation with IRDye® labeled EGF (64 nM), as a function of time.

[1] = pretreatment 10 micromolar for 1 hr, then IRDye labeled EGF 64 nM (FIG. 12C)

With “unlabeled EGF: epidermal growth factor; causes receptor internalization and desensitization; obtained from Sigma” the “effect on both the increase and decrease phase in fluorescence intensity” value (pretreatment 32 nM for 1 hr, then IRDye labeled EGF 64 nM (FIG. 12D)) was “almost completely blocked”.
With `COc1cc2ncnc(Nc3cccc(Cl)c3)c2cc1OC` [AG1478] the “effect on decay phase in fluorescence intensity” value [1] was “completely blocked” and the “effect on initial increase phase in fluorescence intensity” value [1] was “complicated effects”.
In the case of “IRDye-EGF: near-infrared (NIR) labeled recombinant human epidermal growth factor, 54 amino acid residues, conjugated with the IRDye fluorophore; LI-COR Biosciences”, the “fluorescence intensity as a function of time” value (IRDye labeled EGF 64 nM, A431 cells without any pretreatment (FIG. 12A)) is reported as “an initial increase in fluorescence; and thereafter by a slow decrease in fluorescence”.
